The values below come from patent US11142520B2, “LDHA activity inhibitors” (ARCTIC PHARMA AS, priority 2017, dated 2021).

Some results are limits rather than exact numbers.

One test has as its target LDHA (Homo sapiens (Human), UniProt P00338). As to the kind of experiment: Coupled diaphorase assay, LDHA. The note with it: lactate to pyruvate direction, 4-7 nM LDHA. The format is biochemical. From the text:
(§1) The inhibitory properties of the compounds were investigated using a coupled enzyme assay that links the lactate dehydrogenase (LDH) reaction to the production of fluorescent resorutin by diaphorase.
(§2) Human lactate dehydrogenases (LDH) catalyze the reversible interconversion between pyruvate and lactate. LDH is capable of catalyzing both the forward (pyruvate to lactate) and the reverse (lactate to pyruvate) reaction, using either NADH or NAD^+ as a cofactor. The reaction proceeds in either direction dependent on various factors, such as substrate availability, the presence of necessary cofactors, temperature and pH. Different isoforms (LDH A, B, and C) of the enzyme favor different reaction directions—LDHA prefers the conversion from pyruvate to lactate, whereas LDHB preferentially oxidizes lactate to pyruvate.
The coupled assay relies on the oxidation of NAD^+ to NADH throughout the conversion of lactate to pyruvate by LDH (isoforms A, B and C). The produced NADH serves as cofactor in the diaphorase reaction, which reduces non-fluorescent resazurin to fluorescent resorufin. Therefore, the assay indirectly monitors the rate of pyruvate production. Although the consumption of NADH can be directly monitored due to the intrinsic fluorescence of the molecule (excitation: 340 nm, emission: 460 nm) there are problems linked to the direct readout method. […] Shifting the assay to longer wavelengths by coupling the LDH reaction to the conversion of resazurin to fluorescent resorufin by diaphorase reduces this compound interference. The assay direction was thus chosen to provide a robust and reliable assay. […]
Compounds were tested in duplicates using 2-fold, 3-fold or 4-fold serial dilutions including 11 individual concentrations, starting from 5000 μM to 30 μM. […] The controls allowed for the calculation of the percentage inhibition for each data point. […] Enzyme solution leading to final concentrations of 4-7 nM LDHA or 6 nM LDHB, as well as 0.2 U/ml diaphorase in the reaction well was dispensed into 384-well plates (Greiner bio-one) using a CyBi®-SELMA robotic pipettor. Compound dilutions and the enzyme were incubated for at least 20 min at room temperature. […] The reaction was quenched by the addition of a stop solution (final concentrations: 20 mM EDTA, 400 mM NaCl, 40 mM pyruvate). Fluorescence was read out after 5 min of incubation at an excitation wavelength of 560 nm and an emission wavelength of 590 nm on a Perkin Elmer Victor X plate reader. […]
(§3) Fluorescence data was normalized to DMSO and inhibition controls resulting in percentage inhibition for every compound concentration. Dose response curves were fitted in KaleidaGraph (www.synergy.com) or Dotmatics software package (www.dotmatics.com) using a standard 4-parameter fit (Levenberg-Marquardt fitting procedure), resulting in IC50 values for the test compounds.

The target in another test is LDHB (Homo sapiens (Human), UniProt P07195). In words: Coupled diaphorase assay, LDHB. It is filed as biochemical. Conditions: lactate to pyruvate direction, 6 nM LDHB.
Excerpt: as §1, §2
The coupled assay relies on the oxidation of NAD^+ to NADH throughout the conversion of lactate to pyruvate by LDH (isoforms A, B and C). The produced NADH serves as cofactor in the diaphorase reaction, which reduces non-fluorescent resazurin to fluorescent resorufin. Therefore, the assay indirectly monitors the rate of pyruvate production. Although the consumption of NADH can be directly monitored due to the intrinsic fluorescence of the molecule (excitation: 340 nm, emission: 460 nm) there are problems linked to the direct readout method. […] Shifting the assay to longer wavelengths by coupling the LDH reaction to the conversion of resazurin to fluorescent resorufin by diaphorase reduces this compound interference. The assay direction was thus chosen to provide a robust and reliable assay.
Applying the LDHA reaction in the preferred direction for the conversion of pyruvate to lactate under oxidation of NADH to NAD^+ would necessitate running the LDHA reaction to about 80% completion and adding the diaphorase assay reagents afterwards in order to avoid enzyme competition for NADH.
The controls allowed for the calculation of the percentage inhibition for each data point. […] Enzyme solution leading to final concentrations of 4-7 nM LDHA or 6 nM LDHB, as well as 0.2 U/ml diaphorase in the reaction well was dispensed into 384-well plates (Greiner bio-one) using a CyBi®-SELMA robotic pipettor. Compound dilutions and the enzyme were incubated for at least 20 min at room temperature. […] The reaction was quenched by the addition of a stop solution (final concentrations: 20 mM EDTA, 400 mM NaCl, 40 mM pyruvate). Fluorescence was read out after 5 min of incubation at an excitation wavelength of 560 nm and an emission wavelength of 590 nm on a Perkin Elmer Victor X plate reader. […]
as §3

Sequence of LDHB (P07195 whole entry): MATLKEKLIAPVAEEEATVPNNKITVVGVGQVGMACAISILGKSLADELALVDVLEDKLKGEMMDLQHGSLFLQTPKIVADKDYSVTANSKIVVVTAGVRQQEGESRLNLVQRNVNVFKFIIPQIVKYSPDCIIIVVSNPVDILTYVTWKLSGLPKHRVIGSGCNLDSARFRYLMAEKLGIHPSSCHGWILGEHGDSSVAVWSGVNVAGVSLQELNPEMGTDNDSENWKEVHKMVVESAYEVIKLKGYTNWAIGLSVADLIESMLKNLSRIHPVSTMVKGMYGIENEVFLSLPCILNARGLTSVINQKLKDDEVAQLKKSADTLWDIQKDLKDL

The term IC50 denotes the concentration that gives 50% inhibition. For the molecule `O=C1CC(c2cncnc2)(c2ccsc2)OC(=O)C1Sc1ccccc1Cl` (stereo not drawn) [Example 19, 3-((2-chlorophenyl)thio)-6-(pyrimidin-5-yl)-6-(thiophen-3-yl)dihydro-2H-pyran-2,4(3H)-dione], the IC50 on LDHA was 0.5 to 10 µM.
Regarding `CCCOC(=O)OC1=C(Sc2ccc(F)cc2Cl)C(=O)NC(c2ccc(N3CCOCC3)cc2)(c2ccsc2)C1` (stereo not drawn) [Example 14, 5-((2-chloro-4-fluorophenyl)thio)-2-(4-morpholinophenyl)-6-oxo-2-(thiophen-3-yl)-1,2,3,6-tetrahydropyridin-4-yl propyl carbonate], the IC50 at LDHA and at LDHB was 50 to 100 µM each time.
Consider `O=C1CC(c2cnc(N3CCOCC3)nc2)(c2ccsc2)OC(=O)C1Sc1ccccc1Cl` (stereo not drawn) [Example 23, 3-((2-chlorophenyl)thio)-6-(2-morpholinopyrimidin-5-yl)-6-(thiophen-3-yl)dihydro-2H-pyran-2,4(3H)-dione], for which the IC50 on LDHA and on LDHB was 0.5 to 10 µM throughout.
For `O=C1NC(c2ccc(N3CCOCC3)cc2)(c2ccsc2)CC(OC(=O)c2ccncc2)=C1Sc1cc(Cl)ccc1Cl` (stereo not drawn) [Example 31, 5-((2,5-dichlorophenyl)thio)-2-(4-morpholinophenyl)-6-oxo-2-(thiophen-3-yl)-1,2,3,6-tetrahydropyridin-4-yl isonicotinate], the IC50 at LDHA fell in the range of 0.5 to 10 µM.
In the case of `COCCOC(=O)OC1=C(Sc2ccc(Cl)cc2Cl)C(=O)NC(c2ccc(N3CCOCC3)cc2)(c2ccsc2)C1` (stereo not drawn) [Example 30, 5-((2,4-dichlorophenyl)thio)-2-(4-morpholinophenyl)-6-oxo-2-(thiophen-3-yl)-1,2,3,6-tetrahydropyridin-4-yl (2-methoxyethyl) carbonate], the IC50 at LDHA and at LDHB was > 100 µM throughout.
`COCCOC(=O)OC1=C(Sc2ccc(Cl)cc2Cl)C(=O)NC(c2ccsc2)(c2cccc(OCC3CCCC3)n2)C1` (stereo not drawn) [Example 22, 6′-(cyclopentylmethoxy)-5-((2,4-dichlorophenyl)thio)-6-oxo-2-(thiophen-3-yl)-1,2,3,6-tetrahydro-[2,2′-bipyridin]-4-yl (2-methoxyethyl) carbonate]: the IC50 at LDHA and at LDHB was > 100 µM throughout.
As to `CC(=O)OC1=C(Sc2ccc(F)cc2Cl)C(=O)NC(c2ccsc2)(c2cccc(OCC3CCCC3)n2)C1` (stereo not drawn) [Example 13, 5-((2-chloro-4-fluorophenyl)thio)-6′-(cyclopentylmethoxy)-6-oxo-2-(thiophen-3-yl)-1,2,3,6-tetrahydro-[2,2′-bipyridin]-4-yl acetate], the IC50 on LDHA and on LDHB was > 100 µM throughout.
As for `O=C1CC(c2ccsc2)(c2cccc(Br)n2)NC(=O)C1Sc1cccc(Cl)c1Cl` (stereo not drawn) [Example 6, 6-(6-bromopyridin-2-yl)-3-[(2,3-dichlorophenyl)sulfanyl]-6-(thiophen-3-yl)piperidine-2,4-dione], the IC50 on LDHA and on LDHB was > 100 µM in each case.
Take `O=C1CC(c2ccc(N3CCOCC3)cc2)(c2ccsc2)NC(=O)C1Sc1cccc(Cl)c1Cl` (stereo not drawn) [Example 9, 3-((2,3-dichlorophenyl)thio)-6-(4-morpholinophenyl)-6-(thiophen-3-yl)piperidine-2,4-dione]: the IC50 on LDHA is 0.5 to 10 µM; at LDHB it was > 100 µM.
`COCCOC(=O)OC1=C(Sc2cc(Cl)ccc2Cl)C(=O)NC(c2ccsc2)(c2cccc(OCC3CCCC3)n2)C1` (stereo not drawn) [Example 34, 6′-(cyclopentylmethoxy)-5-((2,5-dichlorophenyl)thio)-6-oxo-2-(thiophen-3-yl)-1,2,3,6-tetrahydro-[2,2′-bipyridin]-4-yl (2-methoxyethyl) carbonate]: at LDHA, the IC50 was > 100 µM.
With `COCCOC(=O)OC1=C(Sc2cc(Cl)ccc2Cl)C(=O)NC(c2ccc(N3CCOCC3)cc2)(c2ccsc2)C1` (single isomer, unassigned) [Example 17 Enantiomer 2], on LDHA, the 50% inhibitory concentration (IC50) was 0.5 to 10 µM.
Regarding `COC(=O)OC1=C(Sc2cccc(Cl)c2Cl)C(=O)NC(c2ccsc2)(c2cccc(OCC3CCCC3)n2)C1` (stereo not drawn) [Example 12, 6′-(cyclopentylmethoxy)-5-((2,3-dichlorophenyl)thio)-6-oxo-2-(thiophen-3-yl)-1,2,3,6-tetrahydro-[2,2′-bipyridin]-4-yl methyl carbonate], the IC50 at LDHA and on LDHB was > 100 µM in each case.
Regarding `CC(C)COC(=O)OC1=C(Sc2cc(Cl)ccc2Cl)C(=O)NC(c2ccc(N3CCOCC3)cc2)(c2ccsc2)C1` (stereo not drawn) [Example 26, 5-((2,5-dichlorophenyl)thio)-2-(4-morpholinophenyl)-6-oxo-2-(thiophen-3-yl)-1,2,3,6-tetrahydropyridin-4-yl isobutyl carbonate], the IC50 on LDHA was 50 to 100 µM.
For `COCCOC(=O)OC1=C(Sc2cc(Cl)ccc2Cl)C(=O)NC(c2ccc(N3CCOCC3)cc2)(c2ccsc2)C1` (racemic) [Example 17, 5-((2,5-dichlorophenyl)thio)-2-(4-morpholinophenyl)-6-oxo-2-(thiophen-3-yl)-1,2,3,6-tetrahydropyridin-4-yl (2-methoxyethyl) carbonate], at LDHA, the IC50 lay in the range of 10 to 50 µM.
For the molecule `O=C1CC(c2ccc(N3CCOCC3)cc2)(c2ccsc2)NC(=O)C1Sc1cc(Cl)ccc1Cl` (single isomer, unassigned) [Example 10 Enantiomer 1], the IC50 at LDHA fell in the range of 0.5 to 10 µM.
The same measure, in the same setting: the same measure for `CCCCCCCCCCOC(=O)OC1=C(Sc2cc(Cl)ccc2Cl)C(=O)NC(c2ccsc2)(c2cccc(OCC3CCCC3)n2)C1` (stereo not drawn) [Example 16, 6′-(cyclopentylmethoxy)-5-((2,5-dichlorophenyl)thio)-6-oxo-2-(thiophen-3-yl)-1,2,3,6-tetrahydro-[2,2′-bipyridin]-4-yl decyl carbonate]: > 100 µM; for `COC(=O)OC1=C(Sc2ccccc2Cl)C(=O)OC(c2ccsc2)(c2ccc(Br)cn2)C1` (stereo not drawn) [Example 21, 2-(5-bromopyridin-2-yl)-5-((2-chlorophenyl)thio)-6-oxo-2-(thiophen-3-yl)-3,6-dihydro-2H-pyran-4-yl methyl carbonate]: 10 to 50 µM.
As to `CC(=O)OC1=C(Sc2cc(Cl)ccc2Cl)C(=O)NC(c2ccc(N3CCOCC3)cc2)(c2ccsc2)C1` (stereo not drawn) [Example 27, 5-((2,5-dichlorophenyl)thio)-2-(4-morpholinophenyl)-6-oxo-2-(thiophen-3-yl)-1,2,3,6-tetrahydropyridin-4-yl acetate], the concentration for half-maximal inhibition (IC50) on LDHA fell in the range of 10 to 50 µM.
Consider `COCCOC(=O)OC1=C(Sc2cc(Cl)ccc2Cl)C(=O)NC(c2ccc(N3CCOCC3)cc2)(c2ccsc2)C1` (single isomer, unassigned) [Example 17 Enantiomer 1], for which, on LDHA, the IC50 was in the range of 10 to 50 µM.
Same read-out and setting: in the case of `O=C1CC(c2ccc(N3CCOCC3)cc2)(c2ccsc2)NC(=O)C1Sc1cc(Cl)ccc1Cl` (single isomer, unassigned) [Example 10 Enantiomer 2] it was 10 to 50 µM.
Regarding `CC(C)(C)C(=O)OC1=C(Sc2cc(Cl)ccc2Cl)C(=O)NC(c2ccc(N3CCOCC3)cc2)(c2ccsc2)C1` (stereo not drawn) [Example 28, 5-((2,5-dichlorophenyl)thio)-2-(4-morpholinophenyl)-6-oxo-2-(thiophen-3-yl)-1,2,3,6-tetrahydropyridin-4-yl pivalate], the IC50 on LDHA fell in the range of 10 to 50 µM.
As for `COCCOC(=O)OC1=C(Sc2ccccc2Cl)C(=O)OC(c2cnc(N3CCOCC3)nc2)(c2ccsc2)C1` (stereo not drawn) [Example 35, 5-((2-chlorophenyl)thio)-2-(2-morpholinopyrimidin-5-yl)-6-oxo-2-(thiophen-3-yl)-3,6-dihydro-2H-pyran-4-yl (2-methoxyethyl) carbonate], at LDHA, the half-inhibitory concentration (IC50) fell in the range of 10 to 50 µM.
